Experiment: xn = mol fraction of the nth substance listed
Conditions: for electrical conductivity: 101 kPa; for viscosity: 100 kPa

CCCCCCCCCCCCOS(=O)(=O)[O-].[Na+] + O
Conditions	electrical conductivity [S/m]	viscosity [mPa·s]
283.1 K, x1 = 6.483e-05	0.01714	–
283.1 K, x1 = 6.941e-05	0.01821	–
283.1 K, x1 = 7.476e-05	0.01971	–
283.1 K, x1 = 8.126e-05	0.02131	–
283.1 K, x1 = 8.852e-05	0.02313	–
283.1 K, x1 = 9.769e-05	0.02537	–
283.1 K, x1 = 0.0001027	0.02665	–
283.1 K, x1 = 0.0001088	0.02815	–
283.1 K, x1 = 0.0001153	0.02986	–
283.1 K, x1 = 0.0001225	0.03168	–
283.1 K, x1 = 0.000131	0.03381	–
283.1 K, x1 = 0.0001413	0.03617	–
283.1 K, x1 = 0.0001516	0.03884	–
283.1 K, x1 = 0.0001654	0.04066	–
283.1 K, x1 = 0.0001807	0.04228	–
283.1 K, x1 = 0.0001998	0.044	–
283.1 K, x1 = 0.0002228	0.04584	–
283.1 K, x1 = 0.0002339	0.0467	–
283.1 K, x1 = 0.0002461	0.04778	–
283.1 K, x1 = 0.0002595	0.04865	–
283.1 K, x1 = 0.0002745	0.04994	–
283.1 K, x1 = 0.0002921	0.05135	–
288.15 K, x1 = 6.595e-05	0.01969	–
288.15 K, x1 = 7.09e-05	0.02119	–
288.15 K, x1 = 7.663e-05	0.02279	–
288.15 K, x1 = 8.276e-05	0.0245	–
288.15 K, x1 = 9e-05	0.02696	–
288.15 K, x1 = 9.917e-05	0.02952	–
288.15 K, x1 = 0.0001045	0.03102	–
288.15 K, x1 = 0.0001107	0.03273	–
288.15 K, x1 = 0.0001168	0.03465	–
288.15 K, x1 = 0.0001244	0.03679	–
288.15 K, x1 = 0.0001328	0.03924	–
288.15 K, x1 = 0.0001424	0.04191	–
288.15 K, x1 = 0.0001538	0.04459	–
288.15 K, x1 = 0.0001668	0.0463	–
288.15 K, x1 = 0.0001829	0.04792	–
288.15 K, x1 = 0.0002013	0.04975	–
288.15 K, x1 = 0.0002246	0.05212	–
288.15 K, x1 = 0.0002357	0.05319	–
288.15 K, x1 = 0.0002468	0.05427	–
288.15 K, x1 = 0.0002602	0.05567	–
288.15 K, x1 = 0.0002748	0.05707	–
288.15 K, x1 = 0.0002912	0.05868	–
293.15 K, x1 = 1.802e-05	–	0.968
293.15 K, x1 = 3.604e-05	–	0.97
293.15 K, x1 = 5.406e-05	–	0.971
293.15 K, x1 = 6.553e-05	0.02214	–
293.15 K, x1 = 6.973e-05	0.02364	–
293.15 K, x1 = 7.207e-05	–	0.974
293.15 K, x1 = 7.508e-05	0.02545	–
293.15 K, x1 = 8.157e-05	0.02759	–
293.15 K, x1 = 8.883e-05	0.03004	–
293.15 K, x1 = 9.009e-05	–	0.978
293.15 K, x1 = 9.76e-05	0.03303	–
293.15 K, x1 = 0.000103	0.03463	–
293.15 K, x1 = 0.0001081	–	0.981
293.15 K, x1 = 0.0001091	0.03666	–
293.15 K, x1 = 0.0001152	0.03858	–
293.15 K, x1 = 0.0001228	0.04104	–
293.15 K, x1 = 0.0001261	–	0.984
293.15 K, x1 = 0.0001312	0.04371	–
293.15 K, x1 = 0.0001408	0.0468	–
293.15 K, x1 = 0.0001441	–	0.986
293.15 K, x1 = 0.0001522	0.04969	–
293.15 K, x1 = 0.0001622	–	0.988
293.15 K, x1 = 0.0001649	0.05162	–
293.15 K, x1 = 0.0001802	–	0.989
293.15 K, x1 = 0.0001805	0.05366	–
293.15 K, x1 = 0.0001982	–	0.992
293.15 K, x1 = 0.0001989	0.05581	–
293.15 K, x1 = 0.0002162	–	0.993
293.15 K, x1 = 0.0002219	0.0586	–
293.15 K, x1 = 0.0002326	0.05979	–
293.15 K, x1 = 0.0002342	–	0.993
293.15 K, x1 = 0.0002441	0.06118	–
293.15 K, x1 = 0.0002522	–	0.995
293.15 K, x1 = 0.0002575	0.06269	–
293.15 K, x1 = 0.0002702	–	0.996
293.15 K, x1 = 0.000272	0.06419	–
293.15 K, x1 = 0.0002889	0.06613	–
298.15 K, x1 = 1.802e-05	–	0.853
298.15 K, x1 = 3.604e-05	–	0.854
298.15 K, x1 = 5.406e-05	–	0.855
298.15 K, x1 = 7.207e-05	–	0.856
298.15 K, x1 = 9.009e-05	–	0.857
298.15 K, x1 = 0.0001081	–	0.857
298.15 K, x1 = 0.0001261	–	0.858
298.15 K, x1 = 0.0001441	–	0.86
298.15 K, x1 = 0.0001622	–	0.862
298.15 K, x1 = 0.0001802	–	0.863
298.15 K, x1 = 0.0001982	–	0.864
298.15 K, x1 = 0.0002162	–	0.865
298.15 K, x1 = 0.0002342	–	0.866
298.15 K, x1 = 0.0002522	–	0.866

— the CheMixHub ionic liquid set
